According to patent US20120065103A1, “Prolyl Endopeptidase Probes” (priority 2010, published 2012):

Tests used:
[1] = test system: BALF proteases (prolyl endopeptidase activity); assay: IQFP protease substrate profiling of BALF from infected and uninfected guinea pigs (Table 1); type: biochemical, guinea pig; conditions: for FI infected / Fold infected: infected guinea pig BALF; for Fold enhancement: infected vs uninfected guinea pig BALF; for FI uninfected / Fold uninfected: uninfected guinea pig BALF
Description: Methods: The substrate specificity of AF in vitro culture supernatant was profiled with a combinatorial IQFP library in comparison with human serum to identify fungus-specific substrates. An established guinea pig model of IA was used to collect BALF during active disease for in vivo protease substrate profiling.
(§1) Methods: Guinea pig inhalation model comprises neutropenia by cortisone acetate and cyclophosphamide (days −2 and +3), 1.2×10^8 conidia/mL nebulized AF in inhalation chamber, and serum and BALF obtained at predetermined time points; Vallor et al. Antimicrob. Ag. Chemother. 2008, 52.

[2] = test system: Aspergillus fumigatus infected and uninfected guinea pig broncheoaveolar lavage fluid; assay: Screening probes against Aspergillus fumigatus infected and uninfected guinea pig BALF (Table 2); type: biochemical
Description: as §1
Table 2 Legend. Variable region (Xaa—Yaa—Zaa) of the top 6 peptide probes are all listed in single amino acid code; AF293 and CEA10 are the two strains of Aspergillus fumigatus infected guinea pig BALF samples screened in this study.
N stands for number of guinea pig BALF samples screened against the given peptide probe. Guinea pig infected and uninfected samples with very low background (t=0 hour) and end point values (t=6 hour) (i.e., no greater than 100 units difference between t=0 hour and t=6 hour) were not selected for the statistical calculations.
Mean fold change values is the average of fluorescence fold change calculated for each guinea pig sample screened against respective peptide probe. Fluorescence fold change values are calculated according to the formula:
Fold Change=Fluorescence measured at time t=6 hour/Fluorescence measured at time t=0 hour.
* Fold change values for these peptide probes were calculated at time t=3 hour as the end point value.
SD corresponds to standard deviation calculated for the given probe screened against the respective BALF sample.
Percentage fluorescence efficiency (% FE) is calculated for each probe as follows, % FE=100 * [(Fold changeInfected BALF-Fold changeUninfected BALF)/Fold changeuninfected BALF] Fold change values are all the mean fold change values.
P values are calculated with two tailed student t-test with two sample unequal variance for each peptide probe screened against respective infected and uninfected BALF samples. […]

[3] = strain AF293, t=6 hour vs t=0 hour
[4] = strain AF293 series, t=6 hour vs t=0 hour
[5] = strain CEA10, t=6 hour vs t=0 hour
[6] = strain CEA10 series, t=6 hour vs t=0 hour
[7] = strain AF293, end point t=3 hour
[8] = strain AF293, end point t=3 hour vs t=0 hour
[9] = strain AF293 series, end point t=3 hour vs t=0 hour
[10] = strain CEA10, end point t=3 hour
[11] = strain CEA10, end point t=3 hour vs t=0 hour
[12] = strain CEA10 series, end point t=3 hour vs t=0 hour

Row | Substance | FI infected [1] | Fold infected [1] | Fold enhancement [1] | FI uninfected [1] | Fold uninfected [1] | other results
1 | MeOCGly-G-G-P-A/V-N/Q-G-G-Dap(Dnp)-K-K | 325 | 2.18 | 2.13 | 188 | 1.02 | 
2 | MeOCGly-G-G-P-A/V-P-G-G-Dap(Dnp)-K-K | 488 | 2.85 | 2.62 | 234 | 1.09 | 
3 | MeOCGly-G-G-P-D/E-K/R-G-G-Dap(Dnp)-K-K | 161 | 1.64 | 2.02 | 118 | 0.81 | 
4 | MeOCGly-G-G-P-D/E-P-G-G-Dap(Dnp)-K-K | 349 | 2.3 | 2.31 | 213 | 1 | 
5 | MeOCGly-G-G-P-F/Y-A/V-G-G-Dap(Dnp)-K-K | 493 | 3.06 | 2.04 | 294 | 1.5 | 
6 | MeOCGly-G-G-P-F/Y-K/R-G-G-Dap(Dnp)-K-K | 238 | 2.09 | 2.06 | 151 | 1.01 | 
7 | MeOCGly-G-G-P-F/Y-N/Q-G-G-Dap(Dnp)-K-K | 286 | 2.8 | 2.15 | 154 | 1.31 | 
8 | MeOCGly-G-G-P-F/Y-P-G-G-Dap(Dnp)-K-K | 424 | 4.71 | 4.07 | 124 | 1.16 | 
9 | MeOCGly-G-G-P-I/L-P-G-G-Dap(Dnp)-K-K | 474 | 2.74 | 2.21 | 223 | 1.24 | 
10 | MeOCGly-G-G-P-K/R-P-G-G-Dap(Dnp)-K-K | 498 | 2.88 | 2.37 | 213 | 1.22 | 
11 | MeOCGly-G-G-P-N/Q-A/V-G-G-Dap(Dnp)-K-K | 394 | 4.02 | 3.33 | 151 | 1.21 | 
12 | MeOCGly-G-G-P-N/Q-P-G-G-Dap(Dnp)-K-K | 598 | 3.93 | 2.76 | 261 | 1.43 | 
13 | MeOCGly-G-G-P-S/T-A/V-G-G-Dap(Dnp)-K-K | 467 | 4.28 | 2.39 | 176 | 1.8 | 
14 | MeOCGly-G-G-P-S/T-F/Y-G-G-Dap(Dnp)-K-K | 397 | 3.31 | 3.08 | 146 | 1.07 | 
15 | MeOCGly-G-G-P-S/T-P-G-G-Dap(Dnp)-K-K | 665 | 3.63 | 2.81 | 277 | 1.29 | 
16 | MeOCGly-GGPFPGG Dap(DNP)KK-NH2 |  |  |  |  |  | % FE (percentage fluorescence efficiency) ([2]; strain AF293, t=6 hour): 227.09%; Mean Fold change, Infected BALF [2, 3]: 6.58; Mean Fold Change, Uninfected BALF [2, 4]: 2.01; % FE (percentage fluorescence efficiency) ([2]; strain CEA10, t=6 hour): 326.24%; Mean Fold change, Infected BALF [2, 5]: 12.44; Mean Fold Change, Uninfected BALF [2, 6]: 2.92
17 | MeOCGly-GGPHPGG Dap(DNP)KK-NH2 |  |  |  |  |  | % FE (percentage fluorescence efficiency) ([2]; strain AF293, t=6 hour): 219.69%; Mean Fold change, Infected BALF [2, 3]: 4.47; Mean Fold Change, Uninfected BALF [2, 4]: 1.40; % FE (percentage fluorescence efficiency) ([2]; strain CEA10, t=6 hour): 217.59%; Mean Fold change, Infected BALF [2, 5]: 10.61; Mean Fold Change, Uninfected BALF [2, 6]: 3.34
18 | MeOCGly-GGPNPGG Dap(DNP)KK-NH2 |  |  |  |  |  | % FE (percentage fluorescence efficiency) [2, 7]: 274.00%; Mean Fold change, Infected BALF [2, 8]: 5.68; Mean Fold Change, Uninfected BALF [2, 9]: 1.52; % FE (percentage fluorescence efficiency) [2, 10]: 252.39%; Mean Fold change, Infected BALF [2, 11]: 13.68; Mean Fold Change, Uninfected BALF [2, 12]: 3.88
19 | MeOCGly-GGPNPNPGG Dap(DNP)KK-NH2 |  |  |  |  |  | % FE (percentage fluorescence efficiency) ([2]; strain AF293, t=6 hour): 355.02%; Mean Fold change, Infected BALF [2, 3]: 13.47; Mean Fold Change, Uninfected BALF [2, 4]: 2.96; % FE (percentage fluorescence efficiency) ([2]; strain CEA10, t=6 hour): 111.20%; Mean Fold change, Infected BALF [2, 5]: 8.72; Mean Fold Change, Uninfected BALF [2, 6]: 4.13
20 | MeOCGly-GGPSPGG Dap(DNP)KK-NH2 |  |  |  |  |  | % FE (percentage fluorescence efficiency) ([2]; strain AF293, t=6 hour): 309.39%; Mean Fold change, Infected BALF [2, 3]: 12.49; Mean Fold Change, Uninfected BALF [2, 4]: 3.05; % FE (percentage fluorescence efficiency) ([2]; strain CEA10, t=6 hour): 142.55%; Mean Fold change, Infected BALF [2, 5]: 11.00; Mean Fold Change, Uninfected BALF [2, 6]: 4.54
21 | MeOCGly-GGPYPGG Dap(DNP)KK-NH2 |  |  |  |  |  | % FE (percentage fluorescence efficiency) [2, 7]: 203.00%; Mean Fold change, Infected BALF [2, 8]: 5.42; Mean Fold Change, Uninfected BALF [2, 9]: 1.79; % FE (percentage fluorescence efficiency) [2, 10]: 310.44%; Mean Fold change, Infected BALF [2, 11]: 14.62; Mean Fold Change, Uninfected BALF [2, 12]: 3.56
